Measurements taken from US20210060118A1, “THERAPEUTIC HOMODIMER AND USES THEREOF” (priority 2014, published 2021).
Several values for one entry are separate records, joined by “and”; a condition that tells them apart may be missing. Equal values may be shown once. Entries after “also recorded” stand apart in the source; their conditions may differ. Read-outs that look alike come from different tables or passages of the source. Blank lines part the entries; values can stand above or below the molecule they belong to. Bridge positions count the residues as written; N and C are the ends. Peptide text beside a SMILES is read from it. I, II: the chains in the order shown.

Legend:
[1] = test system: human buccal tissue model
Method: (§1) A human buccal tissue model was used for in vitro testing of the permeability of a number of disulphide-linked homodimers.
(§2) Human oral mucosa tissue models were prepared in accordance with the standard protocols of a commercial reagent supplier (EpiOral™, MatTek Corporation; for details see http://www.mattek.com/epioral/applications/drug-delivery; see also for example Thakur et al., Drug Development and Industrial Pharmacy, 2007, 33(5), pages 513-52). In brief, the tissue models were prepared in tissue culture wells of 24-well plates containing an inner well (insert) with a microporous membrane base coated with an extracellular matrix preparation, on which the human mucosal cells were seeded. The inner well was submerged in the reagent supplier's recommended serum free culture medium which permeates through the microporous membrane to feed the cells in the insert. The cells were submerged in the culture medium for a few days, after insertion of the inner wells into the tissue culture wells and permeation of the culture medium into the inner wells, in accordance with the reagent supplier's recommendation. The inserts containing the developing tissues were then elevated to the air/liquid interface which induces stratification and differentiation. The resulting human buccal cell cultures were stratified, three dimensional tissues comprising 25-30 cell layers, non-cornified with nucleated cells extending up to the apical surface and with histology similar to that of native buccal tissue.
(§3) The buccal tissue culture inserts were transferred from the original tissue culture 24-well plates (maintained at 4° C. in sealed bags containing 5% CO2) under sterile conditions into wells of a fresh 24-well plate containing 1.0 ml of the reagent supplier's recommended serum free medium pre-warmed to 37° C. The plate was then incubated in a humidified incubator at 37° C. in a 5% CO2 atmosphere for one hour as a pre-equilibration procedure prior to dosing.
(§4) After removal of the pre-equilibrated plate from the incubator, any culture medium over the surface of the tissue was carefully removed and replaced with 100 μL of appropriately diluted homodimer solution in reagent supplier's recommended serum free culture medium (stock homodimer-containing medium). The plate was then incubated for a further 30 minutes at 37° C. in a 5% CO2 atmosphere. The plate was removed from the incubator and supernatant samples were taken from above the cells, inside the insert, and analysed by HPLC. The main peak areas for each tested peptide in the supernatants were compared to the corresponding peak areas for the tested peptides in the relevant pre-incubation samples of the stock homodimer-containing medium.

[2] = test system: human buccal tissue model; test: Human buccal tissue permeability screening (EpiOral tissue model, HPLC of supernatant); conditions: for Transmissibility (%): 30 minutes at 37° C.; for Peak Area by HPLC of Peptides in Solution, Post-overlay: supernatant above cells after 30 minutes at 37° C.
Method: as §1, §2, §3, §4

human diabetic patients = test: Therapeutic efficacy testing in human diabetic patients (HbA1c); format: in vivo; conditions: for HbA1c % Change: day 35 vs baseline; for HbA1c % Baseline (Mean ± sd.): before first dose
Method: Homodimer C was tested in human clinical trials to determine therapeutic efficacy of transmucosal delivery. Both intraoral (sublingual) delivery and peroral delivery were tested. Two further groups of patients were administered an injectable preparation of Homodimer C to allow a comparison of the effects of transmucosal delivery to the effects of injection delivery.
Diabetic patients treated with oral anti-diabetic drugs (e.g. sulfonylurea type drugs) or insulin were recruited and randomised to four patient groups: two injectable peptide groups (Groups 1 and 2) and to two oral peptide dosage groups, for delivery of Homodimer C either by sublingual administration (Group 3) or via enteric coated capsules (Group 4).
Each group was administered five doses of Homodimer C. Homodimer C was administered once weekly (at days 0, 7, 14, 21 and 28 of the study) at a dose of 2 mg (which equates to approximately 0.03 mg/kg for a notional 70 kg subject) for all four groups. The homodimer injections were intramuscular, generally into the upper arm of the subjects. The patients' current treatment was not withdrawn during the study. HbA1c levels were determined in advance of the first dose and at day 35 of the study.

[3] = Table 1, stock homodimer-containing medium before incubation

Peak Area by HPLC of Peptides in Solution, Post-overlay [1]: 4439
Peak Area by HPLC of Peptides in Solution, Pre-overlay [1]: 5398
Transmissibility (%) [1]: 17.7%
transmissibility (absorption) across the human buccal tissue surface, in words [1]: only poor transmissibility
SMILES: CC[C@H](C)[C@H](NC(=O)[C@H](CC(N)=O)NC(=O)[C@@H](N)CSSC[C@H](N)C(=O)N[C@@H](CC(N)=O)C(=O)N[C@H](C(=O)N[C@@H](Cc1ccc(O)cc1)C(=O)N1CCC[C@H]1C(=O)N[C@@H](CO)C(=O)N[C@@H](CC(=O)O)C(=O)N[C@@H](CO)C(=O)N[C@@H](Cc1ccc(O)cc1)C(=O)N[C@H](C(=O)N[C@@H](CC(N)=O)C(=O)N[C@@H](Cc1ccc(O)cc1)C(=O)N[C@@H](CC(N)=O)C(=O)N[C@@H](CCC(N)=O)C(=O)N[C@@H](CCCCN)C(=O)N[C@@H](Cc1ccccc1)C(=O)N[C@@H](CCCCN)C(=O)N[C@@H](CC(=O)O)C(=O)O)[C@@H](C)O)[C@@H](C)CC)C(=O)N[C@@H](Cc1ccc(O)cc1)C(=O)N1CCC[C@H]1C(=O)N[C@@H](CO)C(=O)N[C@@H](CC(=O)O)C(=O)N[C@@H](CO)C(=O)N[C@@H](Cc1ccc(O)cc1)C(=O)N[C@H](C(=O)N[C@@H](CC(N)=O)C(=O)N[C@@H](Cc1ccc(O)cc1)C(=O)N[C@@H](CC(N)=O)C(=O)N[C@@H](CCC(N)=O)C(=O)N[C@@H](CCCCN)C(=O)N[C@@H](Cc1ccccc1)C(=O)N[C@@H](CCCCN)C(=O)N[C@@H](CC(=O)O)C(=O)O)[C@@H](C)O [Homodimer A] (I: H-CNIYPSDSYTNYNQKFKD-OH / II: H-CNIYPSDSYTNYNQKFKD-OH; disulfide I:1-II:1; N-terminus and C-terminus assumed)

transmissibility (absorption) across the human buccal tissue surface, in words [2]: did not demonstrate any transmissibility
Transmissibility (%) ([2]; Table 1): 0%
Peak Area by HPLC of Peptides in Solution, Pre-overlay [2, 3]: 2023
Peak Area by HPLC of Peptides in Solution, Post-overlay ([2]; Table 1): 2396
SMILES: CC(C)C[C@H](NC(=O)CNC(=O)[C@H](CCCNC(=N)N)NC(=O)[C@H](CC(C)C)NC(=O)[C@@H](N)CSSC[C@H](N)C(=O)N[C@@H](CC(C)C)C(=O)N[C@@H](CCCNC(=N)N)C(=O)NCC(=O)N[C@@H](CC(C)C)C(=O)N[C@@H](CC(C)C)C(=O)N1CCC[C@H]1C(=O)N[C@@H](CC(=O)O)C(=O)N[C@@H](Cc1ccc(O)cc1)C(=O)O)C(=O)N[C@@H](CC(C)C)C(=O)N1CCC[C@H]1C(=O)N[C@@H](CC(=O)O)C(=O)N[C@@H](Cc1ccc(O)cc1)C(=O)O [Homodimer B, reference compound] (I: H-CLRGLLPDY-OH / II: H-CLRGLLPDY-OH; disulfide I:1-II:1; N-terminus and C-terminus assumed)

Transmissibility (%) ([2]; Table 1): 94.1%
Peak Area by HPLC of Peptides in Solution, Pre-overlay [2, 3]: 4142
Peak Area by HPLC of Peptides in Solution, Post-overlay ([2]; Table 1): 243
Transmissibility (%) ([2]; Table 2, triplicate cultures): 93.3% and 84.5% and 100%
Peak Area by HPLC of Peptides in Solution, Pre-overlay ([2]; Table 2, triplicate cultures, stock medium before incubation): 4142
SMILES: CC(C)C[C@H](NC(=O)[C@@H]1CCCN1C(=O)[C@H](Cc1ccc(O)cc1)NC(=O)[C@H](CO)NC(=O)[C@H](CC(N)=O)NC(=O)[C@H](Cc1ccc(O)cc1)NC(=O)[C@H](CCC(N)=O)NC(=O)[C@H](CCC(N)=O)NC(=O)[C@@H](N)CSSC[C@H](N)C(=O)N[C@@H](CCC(N)=O)C(=O)N[C@@H](CCC(N)=O)C(=O)N[C@@H](Cc1ccc(O)cc1)C(=O)N[C@@H](CC(N)=O)C(=O)N[C@@H](CO)C(=O)N[C@@H](Cc1ccc(O)cc1)C(=O)N1CCC[C@H]1C(=O)N[C@@H](CC(C)C)C(=O)N[C@H](C(=O)O)[C@@H](C)O)C(=O)N[C@H](C(=O)O)[C@@H](C)O [Homodimer C] (I: H-CQQYNSYPLT-OH / II: H-CQQYNSYPLT-OH; disulfide I:1-II:1; N-terminus assumed)
efficacy of intraoral (sublingual) or peroral routes compared with parenteral (injection) (human diabetic patients; 2 mg once weekly x5): significantly more effective
HbA1c % Change (human diabetic patients; Group 1, intramuscular injection 2 mg once weekly x5, insulin only, P = 0.045): −0.60%
HbA1c % Day 35 (Mean ± sd.) (human diabetic patients; Group 1, intramuscular injection 2 mg once weekly x5, previous treatment insulin only, n = 17): 10.74 ± 2.0%
HbA1c % Baseline (Mean ± sd.) (human diabetic patients; Group 1, intramuscular injection, previous treatment insulin only, n = 17): 11.34 ± 2.6%
HbA1c % Day 35 (Mean ± sd.) (human diabetic patients; Group 2, intramuscular injection 2 mg once weekly x5, oral anti-diabetics and/or insulin, n = 18): 9.57 ± 1.79%
HbA1c % Change (human diabetic patients; Group 2, intramuscular injection 2 mg once weekly x5, P = 0.033): −0.75%
HbA1c % Baseline (Mean ± sd.) (human diabetic patients; Group 2, intramuscular injection, previous oral anti-diabetics and/or insulin, n = 18): 10.32 ± 2.24%
HbA1c % Day 35 (Mean ± sd.) (human diabetic patients; Group 3, sublingual 2 mg once weekly x5, n = 7): 7.85 ± 2.03%
HbA1c % Change (human diabetic patients; Group 3, sublingual 2 mg once weekly x5, P = 0.005): −1.33%
HbA1c % Baseline (Mean ± sd.) (human diabetic patients; Group 3, sublingual, previous oral anti-diabetics and/or insulin, n = 7): 9.18 ± 2.64%
HbA1c % Day 35 (Mean ± sd.) (human diabetic patients; Group 4, enteric coated capsule (peroral) 2 mg once weekly x5, n = 7): 8.12 ± 1.04%
HbA1c % Change (human diabetic patients; Group 4, enteric coated capsule (peroral) 2 mg once weekly x5, P = 0.016): −1.18%
HbA1c % Baseline (Mean ± sd.) (human diabetic patients; Group 4, enteric coated capsule (peroral), previous oral anti-diabetics and/or insulin, n = 7): 9.30 ± 1.65%
side-effects in human patients (human diabetic patients; doses of approximately 2 mg (approximately 0.03 mg/kg)): without significant undesirable side-effects
mean HbA1c levels at day 35 relative to mean baseline, in words (human diabetic patients; each of Groups 1-4): significantly reduced
transmissibility (absorption) across the human buccal tissue surface, in words [2]: transmitted efficiently; also recorded: efficient uptake
